Source: patent US20230183193A1, “4-DIFLUOROMETHYL BENZOYL AMIDES WITH HERBICIDAL ACTION” (BAYER CROPSCIENCE AKTIENGESELLSCHAFT, priority 2017, published 2023)

Key:
Format in all cases: in vivo
[1] = system: Matricaria inodora; assay: Pre-emergence herbicidal action, MATIN; details: dosage 320 g/ha, scored visually after 3 weeks vs untreated controls
Method in brief: (§1)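 Percent herbicidal activity rated by eye 3 weeks after pre-emergence soil-surface application, compared with untreated pots. Seeds sat under sandy loam; sprays carried 0.2% wetting agent.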

[2] = system: Alopecurus myosuroides; assay: Post-emergence herbicidal action, ALOMY; details: 80 g/ha, Table C
Method: (§2) Seeds of monocotyledonous and dicotyledonous weed and crop plants are laid out in sandy loam soil in wood-fiber pots, covered with soil and cultivated in a greenhouse under good growth conditions. 2 to 3 weeks after sowing, the test plants are treated at the one-leaf stage. The compounds of the invention, formulated in the form of wettable powders (WP) or as emulsion concentrates (EC), are then sprayed onto the green parts of the plants in the form of an aqueous suspension or emulsion at a water application rate equating to […], with addition of 0.2% wetting agent. After the test plants have been left to stand in the greenhouse under optimal growth conditions for about 3 weeks, the action of the preparations is assessed visually in comparison to untreated controls (herbicidal action in percent (%): 100% activity=the plants have died, 0% activity=like control plants). […] At the same time, inventive compounds leave Gramineae crops such as barley, wheat, rye, millet/sorghum, corn or rice virtually undamaged when applied post-emergence, even at high active compound dosages. In addition, some substances are also harmless to dicotyledonous crops such as soya, cotton, oilseed rape, sugar beet or potatoes. Some of the compounds according to the invention have high selectivity and are therefore suitable for controlling unwanted vegetation in agricultural crops by the post-emergence method. The data of Tables C and D below illustrate, in an exemplary manner, the […] herbicidal action of the compounds according to the invention, the herbicidal activity being stated in percent.
(§3) For comparison, the herbicidal activity of numerous compounds according to the invention was tested with the structurally closest compounds known from the documents WO 2011/035874, WO 2012/028579 and WO 2012/126932, by the pre- and post-emergence method.

[3] = system: Abutilon theophrasti; assay: Pre-emergence herbicidal action, ABUTH; details: dosage 320 g/ha, scored visually after 3 weeks vs untreated controls
Method in brief: as §1

[4] = system: Abutilon theophrasti; assay: Post-emergence herbicidal action, ABUTH; details: 80 g/ha, Table D
Method in brief: (§4)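 Visual percent activity relative to untreated controls, assessed about 3 weeks after foliar treatment, where 0% equals control growth and 100% equals death. Compounds, as wettable powders or emulsion concentrates, are sprayed onto one-leaf-stage plants in sandy loam.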

[5] = system: Setaria viridis; assay: Pre-emergence herbicidal action, SETVI; details: dosage 320 g/ha, scored visually after 3 weeks vs untreated controls
Method in brief: as §1

[6] = system: Stellaria media; assay: Pre-emergence herbicidal action, STEME; details: dosage 320 g/ha, scored visually after 3 weeks vs untreated controls
Method in brief: as §1

[7] = system: Amaranthus retroflexus; assay: Pre-emergence herbicidal action, AMARE; details: dosage 320 g/ha, scored visually after 3 weeks vs untreated controls
Method in brief: as §1

[8] = system: Cyperus serotinus; assay: Pre-emergence herbicidal action, CYPES; details: dosage 320 g/ha, scored visually after 3 weeks vs untreated controls
Method in brief: as §1

[9] = system: Viola tricolor; assay: Pre-emergence herbicidal action, VIOTR; details: dosage 320 g/ha, scored visually after 3 weeks vs untreated controls
Method in brief: as §1

[10] = system: Alopecurus myosuroides; assay: Pre-emergence herbicidal action, ALOMY; details: dosage 320 g/ha, scored visually after 3 weeks vs untreated controls
Method in brief: as §1

[11] = system: Stellaria media; assay: Post-emergence herbicidal action, STEME; details: 80 g/ha, Table D
Method in brief: as §4

[12] = system: Setaria viridis; assay: Post-emergence herbicidal action, SETVI; details: 80 g/ha, Table C
Method in brief: as §4

[13] = system: Avena fatua; assay: Post-emergence herbicidal action, AVEFA; details: 80 g/ha, Table C
Method: as §2, §3

[14] = system: Viola tricolor; assay: Post-emergence herbicidal action, VIOTR; details: 80 g/ha, Table D
Method in brief: as §4

[15] = system: ECHCG; assay: Post-emergence herbicidal action, ECHCG; details: 80 g/ha, Table C
Method in brief: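 Weed and crop plants grown in sandy loam in the greenhouse, treated at the one-leaf stage 2–3 weeks after sowing. Damage scored visually after about 3 weeks vs untreated controls (0% = control, 100% = dead).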

[16] = system: Avena fatua; assay: Pre-emergence herbicidal action, AVEFA; details: dosage 320 g/ha, scored visually after 3 weeks vs untreated controls
Method in brief: as §1

[17] = system: Amaranthus retroflexus; assay: Post-emergence herbicidal action, AMARE; details: 80 g/ha, Table D
Method in brief: as §4

[18] = system: Pharbitis purpureum; assay: Post-emergence herbicidal action, PHBPU; details: 80 g/ha, Table D
Method in brief: as §4

CCSc1c(C(F)F)ccc(C(=O)Nc2nnnn2C)c1CC [Example 1-16]
herbicidal activity MATIN [1]: 100% | herbicidal activity ALOMY [2]: 90% | herbicidal activity ABUTH [3]: 100% | herbicidal activity ABUTH [4]: 100% | herbicidal activity SETVI [5]: 100% | Herbicidal activity STEME [6]: 100% | herbicidal activity AMARE [7]: 100% | herbicidal activity CYPES [8]: 100% | herbicidal activity VIOTR [9]: 100% | herbicidal activity ALOMY [10]: 100% | Herbicidal activity STEME [11]: 100% | herbicidal activity SETVI [12]: 90% | herbicidal activity AVEFA [13]: 90% | herbicidal activity VIOTR [14]: 100% | Herbicidal activity ECHCG [15]: 90% | herbicidal activity AVEFA [16]: 100% | herbicidal activity AMARE [17]: 100%

CCS(=O)(=O)c1c(C(F)F)ccc(C(=O)Nc2nnnn2C)c1I [Example 1-78]
herbicidal activity MATIN [1]: 100% | herbicidal activity ALOMY [2]: 90% | herbicidal activity ABUTH [3]: 100% | herbicidal activity ABUTH [4]: 80% | herbicidal activity SETVI [5]: 100% | herbicidal activity AMARE [7]: 100% | herbicidal activity CYPES [8]: 100% | Herbicidal activity PHBPU [18]: 100% | herbicidal activity VIOTR [9]: 100% | herbicidal activity ALOMY [10]: 100% | Herbicidal activity STEME [11]: 100% | herbicidal activity SETVI [12]: 100% | herbicidal activity AVEFA [13]: 80% | herbicidal activity VIOTR [14]: 90% | Herbicidal activity ECHCG [15]: 100% | herbicidal activity AVEFA [16]: 100% | herbicidal activity AMARE [17]: 100%

CCn1nnnc1NC(=O)c1ccc(C(F)F)c(SC)c1C [Example 2-1]
herbicidal activity MATIN [1]: 100% | herbicidal activity ALOMY [2]: 90% | herbicidal activity ABUTH [3]: 100% | herbicidal activity ABUTH [4]: 90% | herbicidal activity SETVI [5]: 100% | herbicidal activity AMARE [7]: 100% | Herbicidal activity PHBPU [18]: 100% | herbicidal activity VIOTR [9]: 100% | herbicidal activity ALOMY [10]: 90% | Herbicidal activity STEME [11]: 100% | herbicidal activity SETVI [12]: 90% | herbicidal activity AVEFA [13]: 100% | herbicidal activity VIOTR [14]: 100% | Herbicidal activity ECHCG [15]: 90% | herbicidal activity AVEFA [16]: 100% | herbicidal activity AMARE [17]: 100%

CCn1nnnc1NC(=O)c1ccc(C(F)F)c([S+](C)[O-])c1C (centres unmarked) [Example 2-2]
herbicidal activity MATIN [1]: 100% | herbicidal activity ALOMY [2]: 90% | herbicidal activity ABUTH [3]: 100% | herbicidal activity ABUTH [4]: 90% | herbicidal activity SETVI [5]: 100% | herbicidal activity AMARE [7]: 100% | herbicidal activity CYPES [8]: 90% | Herbicidal activity PHBPU [18]: 90% | herbicidal activity VIOTR [9]: 100% | herbicidal activity ALOMY [10]: 100% | Herbicidal activity STEME [11]: 100% | herbicidal activity SETVI [12]: 100% | herbicidal activity AVEFA [13]: 90% | herbicidal activity VIOTR [14]: 100% | Herbicidal activity ECHCG [15]: 90% | herbicidal activity AVEFA [16]: 100% | herbicidal activity AMARE [17]: 80%

CCSc1c(C(F)F)ccc(C(=O)Nc2nnnn2CC)c1C [Example 2-4]
herbicidal activity MATIN [1]: 100% | herbicidal activity ALOMY [2]: 90% | herbicidal activity ABUTH [3]: 100% | herbicidal activity SETVI [5]: 100% | Herbicidal activity STEME [6]: 90% | herbicidal activity AMARE [7]: 100% | herbicidal activity CYPES [8]: 100% | Herbicidal activity PHBPU [18]: 100% | herbicidal activity VIOTR [9]: 100% | herbicidal activity ALOMY [10]: 100% | Herbicidal activity STEME [11]: 100% | herbicidal activity SETVI [12]: 90% | herbicidal activity AVEFA [13]: 100% | herbicidal activity VIOTR [14]: 100% | Herbicidal activity ECHCG [15]: 90% | herbicidal activity AVEFA [16]: 100%

CCCn1nnnc1NC(=O)c1ccc(C(F)F)c([S+](C)[O-])c1C (centres unmarked) [Example 3-2]
herbicidal activity MATIN [1]: 100% | herbicidal activity ALOMY [2]: 90% | herbicidal activity ABUTH [3]: 100% | herbicidal activity ABUTH [4]: 80% | herbicidal activity SETVI [5]: 100% | Herbicidal activity STEME [6]: 90% | herbicidal activity AMARE [7]: 100% | herbicidal activity CYPES [8]: 80% | Herbicidal activity PHBPU [18]: 90% | herbicidal activity VIOTR [9]: 100% | herbicidal activity ALOMY [10]: 90% | Herbicidal activity STEME [11]: 100% | herbicidal activity SETVI [12]: 100% | herbicidal activity AVEFA [13]: 90% | herbicidal activity VIOTR [14]: 100% | Herbicidal activity ECHCG [15]: 90% | herbicidal activity AVEFA [16]: 90%

CCSc1c(C(F)F)ccc(C(=O)Nc2nnc(C)o2)c1C [Example 7-4]
herbicidal activity MATIN [1]: 80% | herbicidal activity ALOMY [2]: 90% | herbicidal activity ABUTH [3]: 100% | herbicidal activity SETVI [5]: 100% | Herbicidal activity STEME [6]: 90% | herbicidal activity AMARE [7]: 100% | herbicidal activity VIOTR [9]: 100% | herbicidal activity ALOMY [10]: 90% | Herbicidal activity STEME [11]: 90% | herbicidal activity SETVI [12]: 100% | herbicidal activity AVEFA [13]: 90% | herbicidal activity VIOTR [14]: 100% | Herbicidal activity ECHCG [15]: 100% | herbicidal activity AMARE [17]: 100%

CCSc1c(C(F)F)ccc(C(=O)Nc2nnc(C)o2)c1Cl [Example 7-50]
herbicidal activity MATIN [1]: 90% | herbicidal activity ALOMY [2]: 90% | herbicidal activity ABUTH [3]: 100% | herbicidal activity ABUTH [4]: 100% | herbicidal activity SETVI [5]: 100% | Herbicidal activity STEME [6]: 100% | herbicidal activity AMARE [7]: 90% | herbicidal activity CYPES [8]: 90% | herbicidal activity VIOTR [9]: 100% | herbicidal activity ALOMY [10]: 100% | Herbicidal activity STEME [11]: 90% | herbicidal activity SETVI [12]: 100% | herbicidal activity AVEFA [13]: 90% | herbicidal activity VIOTR [14]: 100% | Herbicidal activity ECHCG [15]: 100% | herbicidal activity AVEFA [16]: 100% | herbicidal activity AMARE [17]: 90%
